Test results taken from paper PMC10746543, “Design principles for cyclin K molecular glue degraders” (Nature Chemical Biology, 2023).
Values joined by “and” are separate entries in the source; they are usually repeats but may differ in a detail not shown here. Identical values can stand only once. Like-named read-outs stand apart in the source and are kept apart here.

How the values were obtained:
CDK12–cyclin K and DDB1 = target: T1, CDK12–cyclin K and DDB1 (Homo sapiens, UniProt Q16531+Q9NYV4, K965R); assay: TR-FRET ternary complex formation assay (compound titration); type: binding; details: for TR-FRET signal at compound concentration: replicate titrations
T1 construct: His6–CDK12 (a.a. 713–1,052); full-length or beta-propeller B domain deletion (ΔBPB: a.a. 396–705 deleted) constructs of His6–DDB1ΔBPB, StrepII–Avi–DDB1, or His6–Spy–DDB1; made in house; host or cells: Trichoplusia ni High Five insect cells (baculovirus)
Method in brief: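 Delayed (70 μs) time-resolved read; FRET computed as 520 nm over 490 nm emission.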

[1] = test system: cyclin K–eGFP degradation reporter; assay: Cyclin K reporter stability analysis (dual-color cyclin K–eGFP reporter); type: cell-based, human; details: source data sheet correlations; read-out: DC50
Method in brief: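 Cells (HEK293T–Cas9, reporter-expressing) at 1 × 10^6 ml^−1; 5 h compound or DMSO; flow cytometry; gMFI eGFP ÷ mCherry on round mCherry-positive events; normalized to 3 DMSO controls.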

HEK293T cells = assay: Drug sensitivity assay (CellTiter-Glo viability) with or without MLN4924 pretreatment; type: cell-based, human; details: Supplementary Table 2
Method in brief: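 Viability of HEK293T–Cas9 cells was compared after 3-day drug treatment with or without 100 nM MLN4924 pretreatment (2 h, versus DMSO). Values are CellTiter-Glo signals relative to DMSO controls.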

cyclin K = assay: Label-free quantitative mass spectrometry in MDA-MB-231 cells, cyclin K; type: cell-based, human
Protocol: (§1) MDA-MB-231 cells were treated with DMSO or a cyclin K degrader compound at 1 µM for 5 h. Cells were collected by centrifugation and washed with phosphate-buffered saline before snap freezing in liquid nitrogen. Cells were lysed by addition of lysis buffer (8 M urea, 50 mM NaCl, 50 mM 4-(2-hydroxyethyl)-1-piperazineethanesulfonic acid (EPPS) pH 8.5, and protease and phosphatase inhibitors) and homogenization by bead beating (BioSpec) for three repeats of 30 s at 2,400 rpm. Bradford assay was used to determine the final protein concentration in the clarified cell lysate. Then 50 µg of protein for each sample was reduced, alkylated and precipitated using methanol/chloroform as previously described, and the resulting washed precipitated protein was allowed to air dry. Precipitated protein was resuspended in 4 M urea, 50 mM HEPES pH 7.4, followed by dilution to 1 M urea with the addition of 200 mM EPPS, pH 8. Proteins were first digested with LysC (1:50; enzyme:protein) for 12 h at room temperature. The LysC digestion was diluted to 0.5 M urea with 200 mM EPPS pH 8 followed by digestion with trypsin (1:50; enzyme:protein) for 6 h at 37 °C. Sample digests were acidified with formic acid to a pH of 2–3 before desalting using C18 solid phase extraction plates (SOLA, Thermo Fisher Scientific). Desalted peptides were dried in a vacuum-centrifuged and reconstituted in 0.1% formic acid for liquid chromatography–mass spectrometry analysis.
(§2) Data were collected using a TimsTOF Pro2 (Bruker Daltonics) coupled to a nanoElute LC pump (Bruker Daltonics) via a CaptiveSpray nano-electrospray source. Peptides were separated on a reversed-phase C18 column (25 cm × 75 µm inner diameter, […], IonOpticks) containing an integrated captive spray emitter. Peptides were separated using a 50 min gradient of 2–30% buffer B (acetonitrile in 0.1% formic acid) with a flow rate of 250 nl min^−1 and column temperature maintained at 50 °C.
(§3) Data-dependent acquisition (DDA) was performed in Parallel Accumulation-Serial Fragmentation (PASEF) mode to determine effective ion mobility windows for downstream diaPASEF data collection. The ddaPASEF parameters included: 100% duty cycle using accumulation and ramp times of 50 ms each, one Trapped Ion Mobility Spectrometry(TIMS)-MS scan and ten PASEF ramps per acquisition cycle. The TIMS-MS survey scan was acquired between 100 m/z and 1,700 m/z and 1/K0 of 0.7–1.3 V s cm^−2. Precursors with one to five charges were selected, and those that reached an intensity threshold of 20,000 arbitrary units were actively excluded for 0.4 min. The quadrupole isolation width was set to 2 m/z for m/z < 700 and 3 m/z for m/z > 800, with the m/z between 700 m/z and 800 m/z being interpolated linearly. […] To perform diaPASEF, the precursor distribution in the DDA m/z-ion mobility plane was used to design an acquisition scheme for data-independent acquisition (DIA) data collection that included two windows in each 50 ms diaPASEF scan. Data were acquired using 16 of these 25 Da precursor double window scans (creating 32 windows) that covered the diagonal scan line for doubly and triply charged precursors, with singly charged precursors able to be excluded by their position in the m/z-ion mobility plane. These precursor isolation windows were defined between 400 m/z and 1,200 m/z and 1/K0 of 0.7–1.3 V s cm^−2.
(§4) DirectDIA mode includes first extracting the DIA data into a collection of MS2 spectra which are searched using Spectronaut’s Pulsar search engine. The search results are then used to generate a spectral library which is then employed for the targeted analysis of the DIA data. MS/MS spectra were searched against a Swissprot human database (January 2021). Database search criteria largely followed the default settings for directDIA including: tryptic with two missed cleavages, fixed carbomidomethylation of cysteine, and variable oxidation of methionine and acetylation of protein N-termini and precursor Q-value (FDR) cut-off of 0.01. […]

CDK12 = target: T2, CDK12 (Homo sapiens, UniProt Q16531+Q9NYV4); assay: Label-free quantitative mass spectrometry in MDA-MB-231 cells, CDK12; type: cell-based
T2 construct: endogenous in cells; host or cells: MDA-MB-231
Protocol: as §1, §2, §3, §4

CDK13 = target: T3, CDK13 (Homo sapiens, UniProt Q14004+Q16531); assay: Label-free quantitative mass spectrometry in MDA-MB-231 cells, CDK13; type: cell-based
T3 construct: endogenous in cells; host or cells: MDA-MB-231
Protocol: as §1, §2, §3, §4

[2] = label-free quantitative MS, replicate values
[3] = normalised to DMSO = 1, replicate values

T1 sequence (Q9NYV4 713-1052 K965R): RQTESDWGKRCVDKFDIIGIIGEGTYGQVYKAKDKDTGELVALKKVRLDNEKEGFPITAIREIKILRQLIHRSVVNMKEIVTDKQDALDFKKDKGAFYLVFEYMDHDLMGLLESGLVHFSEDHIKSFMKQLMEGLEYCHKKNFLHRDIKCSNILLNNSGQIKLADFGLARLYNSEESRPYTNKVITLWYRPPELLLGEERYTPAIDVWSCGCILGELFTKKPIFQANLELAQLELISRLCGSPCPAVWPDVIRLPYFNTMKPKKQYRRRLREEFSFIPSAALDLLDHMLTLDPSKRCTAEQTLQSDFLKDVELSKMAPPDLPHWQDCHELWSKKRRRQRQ
T1 sequence (O75909 1-267 partner): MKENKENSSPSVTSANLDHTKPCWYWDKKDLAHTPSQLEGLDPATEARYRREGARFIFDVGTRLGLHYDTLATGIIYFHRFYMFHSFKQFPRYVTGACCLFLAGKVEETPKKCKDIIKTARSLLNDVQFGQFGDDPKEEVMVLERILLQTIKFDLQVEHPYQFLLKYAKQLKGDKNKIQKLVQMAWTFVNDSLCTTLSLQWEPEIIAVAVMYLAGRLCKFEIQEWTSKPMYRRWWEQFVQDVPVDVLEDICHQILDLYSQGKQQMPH
T1 sequence (Q16531 whole entry): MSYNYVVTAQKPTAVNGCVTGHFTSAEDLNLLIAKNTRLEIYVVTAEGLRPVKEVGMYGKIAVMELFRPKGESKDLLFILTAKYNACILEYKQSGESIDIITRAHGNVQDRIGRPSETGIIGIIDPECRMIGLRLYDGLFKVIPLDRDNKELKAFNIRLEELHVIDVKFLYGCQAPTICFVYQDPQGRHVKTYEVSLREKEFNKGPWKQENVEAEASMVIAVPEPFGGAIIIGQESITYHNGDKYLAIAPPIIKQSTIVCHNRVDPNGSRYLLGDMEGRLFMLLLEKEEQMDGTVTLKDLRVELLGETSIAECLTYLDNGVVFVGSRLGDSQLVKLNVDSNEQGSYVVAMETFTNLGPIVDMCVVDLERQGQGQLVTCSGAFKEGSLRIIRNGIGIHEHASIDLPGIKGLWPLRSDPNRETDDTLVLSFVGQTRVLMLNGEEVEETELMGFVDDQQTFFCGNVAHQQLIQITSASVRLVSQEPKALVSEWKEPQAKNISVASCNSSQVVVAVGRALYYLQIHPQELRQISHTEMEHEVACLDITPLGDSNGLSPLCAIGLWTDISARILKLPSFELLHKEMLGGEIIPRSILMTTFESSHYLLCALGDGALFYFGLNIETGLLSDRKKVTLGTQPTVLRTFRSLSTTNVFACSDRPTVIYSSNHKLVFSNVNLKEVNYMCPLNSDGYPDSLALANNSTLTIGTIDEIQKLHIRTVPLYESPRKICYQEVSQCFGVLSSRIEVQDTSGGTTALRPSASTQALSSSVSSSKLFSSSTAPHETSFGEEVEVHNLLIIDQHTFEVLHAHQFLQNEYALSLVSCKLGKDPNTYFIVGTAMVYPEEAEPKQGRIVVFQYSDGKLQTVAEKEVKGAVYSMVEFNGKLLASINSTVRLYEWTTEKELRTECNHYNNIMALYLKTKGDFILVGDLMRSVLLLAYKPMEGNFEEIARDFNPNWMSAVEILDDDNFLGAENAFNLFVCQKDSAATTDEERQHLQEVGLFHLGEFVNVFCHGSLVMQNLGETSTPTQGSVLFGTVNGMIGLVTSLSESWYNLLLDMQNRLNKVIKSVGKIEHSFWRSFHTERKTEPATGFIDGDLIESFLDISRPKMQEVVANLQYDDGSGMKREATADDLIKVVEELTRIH
T3 sequence (Q14004 whole entry): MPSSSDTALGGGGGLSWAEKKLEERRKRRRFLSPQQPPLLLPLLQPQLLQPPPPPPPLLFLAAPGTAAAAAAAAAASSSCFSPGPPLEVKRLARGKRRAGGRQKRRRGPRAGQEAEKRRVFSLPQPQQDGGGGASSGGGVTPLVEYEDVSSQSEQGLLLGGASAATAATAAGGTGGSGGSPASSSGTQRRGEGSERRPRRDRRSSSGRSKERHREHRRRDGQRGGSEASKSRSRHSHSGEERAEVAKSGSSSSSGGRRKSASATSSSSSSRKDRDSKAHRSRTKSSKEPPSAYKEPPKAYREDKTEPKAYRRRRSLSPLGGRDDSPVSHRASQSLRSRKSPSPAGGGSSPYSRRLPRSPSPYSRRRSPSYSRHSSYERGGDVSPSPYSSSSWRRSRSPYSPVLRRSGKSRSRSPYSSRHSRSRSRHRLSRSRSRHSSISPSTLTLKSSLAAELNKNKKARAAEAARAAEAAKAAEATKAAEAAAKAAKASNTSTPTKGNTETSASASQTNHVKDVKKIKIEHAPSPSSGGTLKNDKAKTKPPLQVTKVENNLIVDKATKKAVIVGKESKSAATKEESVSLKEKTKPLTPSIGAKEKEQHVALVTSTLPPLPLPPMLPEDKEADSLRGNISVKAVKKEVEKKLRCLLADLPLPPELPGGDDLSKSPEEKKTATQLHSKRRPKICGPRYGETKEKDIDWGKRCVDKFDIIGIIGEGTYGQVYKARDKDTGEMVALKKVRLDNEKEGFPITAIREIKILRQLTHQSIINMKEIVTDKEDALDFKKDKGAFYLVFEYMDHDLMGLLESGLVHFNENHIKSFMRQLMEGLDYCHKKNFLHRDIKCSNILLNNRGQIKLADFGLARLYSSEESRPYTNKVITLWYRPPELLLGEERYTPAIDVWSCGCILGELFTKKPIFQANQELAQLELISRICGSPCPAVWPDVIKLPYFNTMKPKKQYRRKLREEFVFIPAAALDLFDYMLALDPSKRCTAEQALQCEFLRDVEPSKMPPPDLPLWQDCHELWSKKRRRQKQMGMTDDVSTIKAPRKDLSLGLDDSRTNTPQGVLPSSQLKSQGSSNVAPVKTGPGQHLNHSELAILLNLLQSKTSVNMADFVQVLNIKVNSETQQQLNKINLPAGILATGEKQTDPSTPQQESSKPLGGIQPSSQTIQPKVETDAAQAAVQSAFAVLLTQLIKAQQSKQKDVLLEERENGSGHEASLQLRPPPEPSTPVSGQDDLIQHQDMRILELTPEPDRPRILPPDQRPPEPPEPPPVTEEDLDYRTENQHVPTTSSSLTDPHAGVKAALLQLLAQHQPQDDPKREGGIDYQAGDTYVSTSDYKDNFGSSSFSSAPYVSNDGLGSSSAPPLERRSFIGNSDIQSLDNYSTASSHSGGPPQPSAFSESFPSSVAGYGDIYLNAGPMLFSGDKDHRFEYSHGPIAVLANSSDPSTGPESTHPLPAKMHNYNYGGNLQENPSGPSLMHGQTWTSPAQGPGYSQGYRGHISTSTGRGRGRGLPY
T3 sequence (O75909 whole entry partner): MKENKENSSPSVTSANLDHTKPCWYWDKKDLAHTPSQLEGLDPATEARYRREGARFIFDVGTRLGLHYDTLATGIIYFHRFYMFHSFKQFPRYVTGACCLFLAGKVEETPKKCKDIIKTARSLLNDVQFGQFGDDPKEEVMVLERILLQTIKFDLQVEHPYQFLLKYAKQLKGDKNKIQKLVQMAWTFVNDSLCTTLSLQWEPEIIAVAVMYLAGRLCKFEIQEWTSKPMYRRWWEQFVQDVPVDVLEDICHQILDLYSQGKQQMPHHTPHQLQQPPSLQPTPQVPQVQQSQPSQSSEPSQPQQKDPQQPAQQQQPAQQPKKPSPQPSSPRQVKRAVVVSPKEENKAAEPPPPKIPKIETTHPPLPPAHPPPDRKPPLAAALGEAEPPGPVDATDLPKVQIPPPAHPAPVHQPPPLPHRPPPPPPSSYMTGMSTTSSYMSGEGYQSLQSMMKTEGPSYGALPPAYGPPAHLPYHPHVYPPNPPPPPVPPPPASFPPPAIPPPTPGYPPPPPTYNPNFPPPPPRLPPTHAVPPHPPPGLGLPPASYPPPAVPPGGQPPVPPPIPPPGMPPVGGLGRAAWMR
T3 sequence (Q16531 2-1140 limits assumed): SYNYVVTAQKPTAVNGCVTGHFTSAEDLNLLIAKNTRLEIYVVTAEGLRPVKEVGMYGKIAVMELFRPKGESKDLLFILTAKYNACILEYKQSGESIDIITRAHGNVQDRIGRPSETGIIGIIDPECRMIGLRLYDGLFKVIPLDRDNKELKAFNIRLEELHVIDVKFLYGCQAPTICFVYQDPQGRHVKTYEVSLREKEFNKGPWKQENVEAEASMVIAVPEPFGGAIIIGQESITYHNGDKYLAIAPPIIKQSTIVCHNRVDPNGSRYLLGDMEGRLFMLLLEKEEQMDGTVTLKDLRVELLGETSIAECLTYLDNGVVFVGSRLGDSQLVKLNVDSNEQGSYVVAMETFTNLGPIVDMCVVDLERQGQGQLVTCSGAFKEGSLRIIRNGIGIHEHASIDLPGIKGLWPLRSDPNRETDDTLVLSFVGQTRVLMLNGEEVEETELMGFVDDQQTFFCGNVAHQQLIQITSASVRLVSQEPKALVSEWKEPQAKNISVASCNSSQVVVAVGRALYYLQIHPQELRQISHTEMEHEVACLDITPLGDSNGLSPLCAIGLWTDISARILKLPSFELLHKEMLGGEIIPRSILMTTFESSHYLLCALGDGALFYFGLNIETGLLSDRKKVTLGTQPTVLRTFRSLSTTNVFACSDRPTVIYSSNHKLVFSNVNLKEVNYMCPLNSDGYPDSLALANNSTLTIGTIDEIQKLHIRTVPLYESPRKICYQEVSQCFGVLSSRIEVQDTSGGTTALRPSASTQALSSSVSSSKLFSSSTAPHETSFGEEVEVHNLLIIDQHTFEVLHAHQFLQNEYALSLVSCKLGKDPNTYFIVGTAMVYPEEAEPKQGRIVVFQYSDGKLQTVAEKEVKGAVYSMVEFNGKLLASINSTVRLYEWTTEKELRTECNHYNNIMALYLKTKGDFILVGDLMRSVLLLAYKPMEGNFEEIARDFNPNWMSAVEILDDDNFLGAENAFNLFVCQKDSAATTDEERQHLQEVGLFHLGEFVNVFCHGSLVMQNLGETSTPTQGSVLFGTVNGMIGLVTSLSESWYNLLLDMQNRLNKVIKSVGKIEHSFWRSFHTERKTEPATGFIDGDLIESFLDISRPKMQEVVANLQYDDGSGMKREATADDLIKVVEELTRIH

Question: Which “TR-FRET signal at compound concentration” value (CDK12–cyclin K and DDB1; compound concentration 0.468 nM) does the source give for CC[C@H](CO)Nc1nc(NCCCc2cccc(C)c2)c2ncn(C(C)C)c2n1 [DS30] here?
Answer: Its value is 0.2538 and 0.2487 and 0.2092.

Question: What about the “TR-FRET signal at compound concentration” value (CDK12–cyclin K and DDB1; compound concentration 2.16 nM) of the same molecule?
Answer: The value was 0.3096 and 0.3093 and 0.2708.

Question: And the “TR-FRET signal at compound concentration” value (CDK12–cyclin K and DDB1; compound concentration 3.6 nM)?
Answer: Its value is 0.4411 and 0.4525 and 0.4039.

Question: What about the “TR-FRET signal at compound concentration” value (CDK12–cyclin K and DDB1; compound concentration 7.92001 nM) of the same molecule?
Answer: The value was 0.6962 and 0.7001 and 0.6519.

Question: And the “TR-FRET signal at compound concentration” value (CDK12–cyclin K and DDB1; compound concentration 15.84 nM)?
Answer: The value was 1.209 and 1.183 and 1.188.

Question: What about the “TR-FRET signal at compound concentration” value (CDK12–cyclin K and DDB1; compound concentration 30.96 nM) of the same molecule?
Answer: The value was 1.971 and 1.9872 and 1.9274.

Question: And the “TR-FRET signal at compound concentration” value (CDK12–cyclin K and DDB1; compound concentration 62.6401 nM)?
Answer: Its value is 3.092 and 3.095 and 2.939.

Question: What about the “TR-FRET signal at compound concentration” value (CDK12–cyclin K and DDB1; compound concentration 125.28 nM) of the same molecule?
Answer: Its value is 3.635 and 3.6 and 3.694.

Question: And the “TR-FRET signal at compound concentration” value (CDK12–cyclin K and DDB1; compound concentration 244.8 nM)?
Answer: Its value is 4.013 and 4.0411.

Question: And the “TR-FRET signal at compound concentration” value (CDK12–cyclin K and DDB1; compound concentration 993.601 nM)?
Answer: The value was 3.909 and 4.092 and 4.233.

Question: And the “TR-FRET signal at compound concentration” value (CDK12–cyclin K and DDB1; compound concentration 2001.6 nM)?
Answer: The value was 4.11 and 4.134 and 4.272.

Question: And the EC50 (CDK12–cyclin K and DDB1; in vitro complex formation, 50 nM CDK12–cyclin K, 100 nM DDB1, text and figures, read-out: TR-FRET EC50)?
Answer: The EC50 was 35 ± 1 nM.

Question: And the EC50 (CDK12–cyclin K and DDB1; sheet MOESM7, read-out: log TR-FRET EC50 (converted))?
Answer: The EC50 was 34.8 nM.

Question: And the EC50 (CDK12–cyclin K and DDB1; source data sheet correlations, read-out: TR-FRET EC50)?
Answer: The EC50 was 34.8 nM.

Question: What about the DC50 [1] of the same molecule?
Answer: The DC50 was 78 nM.

Question: And the EC50 (HEK293T cells; Homo sapiens, HEK-293T, HEK293T viability, 72 h, compound alone, read-out: Cellular assays EC50)?
Answer: The EC50 was 451 nM.

Question: And the Toxicity rescue (HEK293T cells; MLN4924-mediated cytotoxicity rescue, 10 µM used where n.d.)?
Answer: Its Toxicity rescue is 496%.

Question: What about the “cyclin K abundance (label-free MS)” value (cyclin K; individual replicates, sheet EDF7) of the same molecule?
Answer: The value was 199.985 and 224.267.

Question: And the “cyclin K abundance (label-free MS)” value (cyclin K; [2])?
Answer: The value was 199.985 and 224.267.

Question: And the “CCNK peptide count (DMSO-normalised)” value (cyclin K; [3])?
Answer: The value was 0.1093 and 0.1247.

Question: And the “average CCNK peptide count” value (cyclin K; sheet EDF7)?
Answer: Its value is 212.126.

Question: And the CDK12 peptide count (CDK12; [2])?
Answer: The CDK12 peptide count was 530.324 and 557.769.

Question: And the “CDK12 peptide count (DMSO-normalised)” value (CDK12; [3])?
Answer: The value was 0.5892 and 0.5761.

Question: What about the CDK13 peptide count (CDK13; [2]) of the same molecule?
Answer: Its CDK13 peptide count is 256.293 and 280.454.

Question: What about the “CDK13 peptide count (DMSO-normalised)” value (CDK13; [3]) of the same molecule?
Answer: The value was 0.3813 and 0.431.
